In patent US20090137625A1, “Novel Enantiomers and Their Use as Monoamine Neurotransmitter Re-Uptake Inhibitors” (priority 2005, published 2009):
Structures can show the parent of a compound that is named as a salt. Where two headings read alike, the source gives them in different places.

Tests used:
[1] = target: T1, 5-HT-uptake (reuptake of serotonine in synaptosomes) (Rattus norvegicus, UniProt P31652); assay: Inhibition of serotonine (5-HT) reuptake in synaptosomes; type: biochemical
T1 construct: in synaptosomes as described in WO 97/16451; from tissue

[2] = target: T2, DA-uptake (reuptake of dopamine in synaptosomes) (Rattus norvegicus, UniProt P23977); assay: Inhibition of dopamine (DA) reuptake in synaptosomes; type: biochemical
T2 construct: in synaptosomes as described in WO 97/16451; from tissue

[3] = target: T3, NA-uptake (reuptake of noradrenaline in synaptosomes) (Rattus norvegicus, UniProt Q9WTR4); assay: Inhibition of noradrenaline (NA) reuptake in synaptosomes; type: biochemical
T3 construct: in synaptosomes as described in WO 97/16451; from tissue

[4] = synaptosomes, 3H-5-HT, read-out: 5-HT-uptake IC50
[5] = synaptosomes, 3H-DA, read-out: DA-uptake IC50
[6] = synaptosomes, 3H-NA, read-out: NA-uptake IC50

T2 sequence (P23977 whole entry): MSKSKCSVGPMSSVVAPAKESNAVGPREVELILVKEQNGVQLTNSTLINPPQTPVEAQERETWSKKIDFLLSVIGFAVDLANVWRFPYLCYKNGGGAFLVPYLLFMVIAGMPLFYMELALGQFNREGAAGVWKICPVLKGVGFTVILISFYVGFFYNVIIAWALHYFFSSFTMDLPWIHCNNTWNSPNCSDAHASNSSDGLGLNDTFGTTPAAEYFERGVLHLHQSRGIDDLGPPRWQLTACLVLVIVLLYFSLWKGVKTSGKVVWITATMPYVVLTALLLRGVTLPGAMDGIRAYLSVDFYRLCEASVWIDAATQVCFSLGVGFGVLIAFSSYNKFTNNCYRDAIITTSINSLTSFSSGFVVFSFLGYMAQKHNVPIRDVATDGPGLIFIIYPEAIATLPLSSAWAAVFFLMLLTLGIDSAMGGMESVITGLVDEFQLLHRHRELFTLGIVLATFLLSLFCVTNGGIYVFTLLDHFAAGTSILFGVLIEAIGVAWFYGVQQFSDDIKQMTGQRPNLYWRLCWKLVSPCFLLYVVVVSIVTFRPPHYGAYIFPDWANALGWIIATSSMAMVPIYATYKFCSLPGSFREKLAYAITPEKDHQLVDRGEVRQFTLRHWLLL
T3 sequence (Q9WTR4 1-597): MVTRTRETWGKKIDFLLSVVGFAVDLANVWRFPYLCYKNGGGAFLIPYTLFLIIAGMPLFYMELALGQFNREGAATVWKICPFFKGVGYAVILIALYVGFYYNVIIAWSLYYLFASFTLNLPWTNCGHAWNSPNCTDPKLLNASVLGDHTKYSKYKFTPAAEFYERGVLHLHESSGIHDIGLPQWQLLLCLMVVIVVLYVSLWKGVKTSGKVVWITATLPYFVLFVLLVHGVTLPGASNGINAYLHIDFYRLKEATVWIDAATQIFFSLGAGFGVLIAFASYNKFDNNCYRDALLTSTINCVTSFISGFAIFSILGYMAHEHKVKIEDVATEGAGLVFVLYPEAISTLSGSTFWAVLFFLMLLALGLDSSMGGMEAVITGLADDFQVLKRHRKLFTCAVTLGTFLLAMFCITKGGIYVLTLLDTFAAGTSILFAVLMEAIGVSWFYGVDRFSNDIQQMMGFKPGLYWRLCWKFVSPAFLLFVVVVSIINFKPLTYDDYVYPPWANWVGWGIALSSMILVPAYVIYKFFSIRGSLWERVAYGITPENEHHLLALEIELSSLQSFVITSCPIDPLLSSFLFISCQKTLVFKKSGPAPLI
T1 sequence (P31652 whole entry): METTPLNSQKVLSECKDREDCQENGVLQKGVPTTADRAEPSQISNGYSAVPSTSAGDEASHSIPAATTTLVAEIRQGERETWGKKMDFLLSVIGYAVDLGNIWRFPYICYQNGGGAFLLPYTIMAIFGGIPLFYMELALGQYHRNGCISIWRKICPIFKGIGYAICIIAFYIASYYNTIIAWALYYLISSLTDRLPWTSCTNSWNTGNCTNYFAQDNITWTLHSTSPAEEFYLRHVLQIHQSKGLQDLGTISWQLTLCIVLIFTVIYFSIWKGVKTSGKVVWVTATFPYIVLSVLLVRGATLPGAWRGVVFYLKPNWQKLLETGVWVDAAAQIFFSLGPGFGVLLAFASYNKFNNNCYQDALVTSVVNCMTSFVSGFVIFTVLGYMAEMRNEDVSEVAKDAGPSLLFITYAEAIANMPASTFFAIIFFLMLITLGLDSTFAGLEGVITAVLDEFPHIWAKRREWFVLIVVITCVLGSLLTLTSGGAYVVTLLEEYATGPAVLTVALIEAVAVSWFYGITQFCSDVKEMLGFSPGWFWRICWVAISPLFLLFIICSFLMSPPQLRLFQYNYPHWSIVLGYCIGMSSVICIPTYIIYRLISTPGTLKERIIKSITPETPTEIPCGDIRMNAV

`C1=C(c2ccc3ccccc3c2)CC2CCC1N2` (single isomer, unassigned; (+)) [1st compound of method D, (+)-3-Naphthalen-2-yl-8-aza-bicyclo[3.2.1]oct-2-ene] gave an IC50 [1] of 0.34 nM, an IC50 [2] of 58 nM and an IC50 [3] of 13 nM.

In the case of `C1=C(c2ccc3ccccc3c2)CC2CCC1N2` (single isomer, unassigned; (+)) (as salt: tartaric acid salt) [1st compound of method D, (+)-3-Naphthalen-2-yl-8-aza-bicyclo[3.2.1]oct-2-ene], the melting point is reported as 183 to 189 °C.

In the case of `CN1C2C=C(c3ccc4ccccc4c3)CC1CC2` (single isomer, unassigned; (-)) [1st compound of method E, (−)-8-Methyl-3-(naphthalen-2-yl)-8-aza-bicyclo[3.2.1]oct-2-ene], the IC50 [1, 4] is reported as 0.23 nM, the IC50 [2, 5] is reported as 34 nM and the IC50 [3, 6] is reported as 18 nM.

In the case of `CN1C2C=C(c3ccc4ccccc4c3)CC1CC2` (single isomer, unassigned; (-)) (as salt: hydrochloric acid salt) [1st compound of method E, (−)-8-Methyl-3-(naphthalen-2-yl)-8-aza-bicyclo[3.2.1]oct-2-ene], the melting point is reported as 265 °C.

For `Clc1ccc(C2=CC3CCC(C2)N3)cc1` (single isomer, unassigned; (+)) [1st compound of method A, (+)-3-(4-Chlorophenyl)-8-H-8-aza-bicyclo[3.2.1]oct-2-ene], the IC50 [1, 4] was 10 nM, the IC50 [2, 5] was 260 nM and the IC50 [3, 6] was 28 nM.
